The values that follow come from ChEMBL document CHEMBL1136464, “Array synthesis of novel lipodepsipeptide” (Bioorg Med Chem Lett, 2003).

Common to all, as to format: functional
The subject of assay [1] is Enterococcus faecium. Kind of assay: Antibacterial activity against Enterococcus faecium ATCC 49452 at 0 % serum.
For assay [2], the system named is Enterococcus faecium. Kind of assay: Antibacterial activity against Enterococcus faecium ATCC 49452 at 10 % serum. The following applies: ATCC 49452, Serum.
Assay [3] deals with Enterococcus faecalis. Kind of assay: Antibacterial activity against Enterococcus faecalis ATCC 6569 at 0 % serum.
For assay [4], the system named is Enterococcus faecalis. Kind of assay: Antibacterial activity against Enterococcus faecalis ATCC 6569 at 10 % serum. The note with it: ATCC 6569, Serum.
In assay [5] the test system is Staphylococcus aureus. Kind of assay: Antibacterial activity against methicillin-resistant staphylococcus aureus ATCC 43300 at 10 % serum.
Assay [6] has as its system Staphylococcus aureus. Kind of assay: Antibacterial activity against methicillin susceptible staphylococcus aureus ATCC 29213 at 0 % serum.
For assay [7], the system named is Staphylococcus aureus. Kind of assay: Antibacterial activity against methicillin susceptible staphylococcus aureus ATCC 29213 at 10 % serum.
The subject of assay [8] is Staphylococcus aureus. Kind of assay: Antibacterial activity against methicillin-resistant staphylococcus aureus ATCC 43300 at 0 % serum.

Molecules are shown by their SMILES. Values after ≈ are worked out from the molar mass of the structure shown.

In the case of `CCCCCCCCCC(=O)N[C@@H](Cc1c[nH]c2ccccc12)C(=O)N[C@H](CC(N)=O)C(=O)N[C@@H](CCO)C(=O)N[C@@H]1C(=O)NCC(=O)N[C@@H](CCCNCc2ccc(N3CCN(Cc4ccccc4)CC3)cc2)C(=O)N[C@@H](CC(=O)O)C(=O)N[C@H](C)C(=O)N[C@@H](CC(=O)O)C(=O)NCC(=O)N[C@H](CO)C(=O)N[C@@H]([C@H](C)CC(=O)O)C(=O)N[C@@H](CC(=O)c2ccccc2N)C(=O)O[C@@H]1C`, the MIC came to 12.5 µg/mL (≈ 6.68 µM) in assay [1]; 25 µg/mL (≈ 13.4 µM) in assay [2]; 6.25 µg/mL (≈ 3.34 µM) in assay [3]; 12.5 µg/mL (≈ 6.68 µM) in assay [4]; 0.78 µg/mL (≈ 0.417 µM) in assay [5]; 0.78 µg/mL (≈ 0.417 µM) in assay [6]. In addition, the MIC in assay [7] and in assay [8] was 0.78 µg/mL (≈ 0.417 µM) in each case.
For the compound `CCCCCCCCCC(=O)N[C@@H](Cc1c[nH]c2ccccc12)C(=O)N[C@H](CC(N)=O)C(=O)N[C@@H](CCO)C(=O)N[C@@H]1C(=O)NCC(=O)N[C@@H](CCCNCc2cc3ccccc3o2)C(=O)N[C@@H](CC(=O)O)C(=O)N[C@H](C)C(=O)N[C@@H](CC(=O)O)C(=O)NCC(=O)N[C@H](CO)C(=O)N[C@@H]([C@H](C)CC(=O)O)C(=O)N[C@@H](CC(=O)c2ccccc2N)C(=O)O[C@@H]1C`, the MIC in assay [1] was 3.13 µg/mL (≈ 1.8 µM); in assay [2], 12.5 µg/mL (≈ 7.2 µM); in assay [3], 3.13 µg/mL (≈ 1.8 µM); in assay [4], 6.25 µg/mL (≈ 3.6 µM); in assay [5], 0.78 µg/mL (≈ 0.449 µM); in assay [6], 0.78 µg/mL (≈ 0.449 µM). In addition, the values for the MIC in assay [7] and in assay [8] were 1.56 µg/mL (≈ 0.898 µM) and 0.78 µg/mL (≈ 0.449 µM), respectively.
`CCCCCCCCCC(=O)N[C@@H](Cc1c[nH]c2ccccc12)C(=O)N[C@H](CC(N)=O)C(=O)N[C@@H](CCO)C(=O)N[C@@H]1C(=O)NCC(=O)N[C@@H](CCCNCc2cccc(F)c2)C(=O)N[C@@H](CC(=O)O)C(=O)N[C@H](C)C(=O)N[C@@H](CC(=O)O)C(=O)NCC(=O)N[C@H](CO)C(=O)N[C@@H]([C@H](C)CC(=O)O)C(=O)N[C@@H](CC(=O)c2ccccc2N)C(=O)O[C@@H]1C`: the MIC amounted to 12.5 µg/mL (≈ 7.29 µM) in assay [1]; 12.5 µg/mL (≈ 7.29 µM) in assay [2]; 6.25 µg/mL (≈ 3.64 µM) in assay [3]; 12.5 µg/mL (≈ 7.29 µM) in assay [4]; 0.56 µg/mL (≈ 0.327 µM) in assay [5]; 0.78 µg/mL (≈ 0.455 µM) in assay [6]. Further, the results for the MIC in assay [7] and in assay [8] were 1.56 µg/mL (≈ 0.91 µM) and 0.78 µg/mL (≈ 0.455 µM), respectively.
Turning to `CCCCCCCCCC(=O)N[C@@H](Cc1c[nH]c2ccccc12)C(=O)N[C@H](CC(N)=O)C(=O)N[C@@H](CCO)C(=O)N[C@@H]1C(=O)NCC(=O)N[C@@H](CCCNCc2ccc(C#N)cc2)C(=O)N[C@@H](CC(=O)O)C(=O)N[C@H](C)C(=O)N[C@@H](CC(=O)O)C(=O)NCC(=O)N[C@H](CO)C(=O)N[C@@H]([C@H](C)CC(=O)O)C(=O)N[C@@H](CC(=O)c2ccccc2N)C(=O)O[C@@H]1C`, the MIC in assay [1] came out at 6.25 µg/mL (≈ 3.63 µM); in assay [2], 12.5 µg/mL (≈ 7.26 µM); in assay [3] it was 6.25 µg/mL (≈ 3.63 µM); in assay [4], 6.25 µg/mL (≈ 3.63 µM); in assay [5] it was 0.78 µg/mL (≈ 0.453 µM); in assay [6], 0.78 µg/mL (≈ 0.453 µM). The MIC in assay [7] and in assay [8] was 0.78 µg/mL (≈ 0.453 µM) throughout.
Consider `CCCCCCCCCC(=O)N[C@@H](Cc1c[nH]c2ccccc12)C(=O)N[C@H](CC(N)=O)C(=O)N[C@@H](CCO)C(=O)N[C@@H]1C(=O)NCC(=O)N[C@@H](CCCNCc2cccc([N+](=O)[O-])c2)C(=O)N[C@@H](CC(=O)O)C(=O)N[C@H](C)C(=O)N[C@@H](CC(=O)O)C(=O)NCC(=O)N[C@H](CO)C(=O)N[C@@H]([C@H](C)CC(=O)O)C(=O)N[C@@H](CC(=O)c2ccccc2N)C(=O)O[C@@H]1C`, for which the MIC came to 6.25 µg/mL (≈ 3.59 µM) in assay [1]; 12.5 µg/mL (≈ 7.18 µM) in assay [2]; 6.25 µg/mL (≈ 3.59 µM) in assay [3]; 12.5 µg/mL (≈ 7.18 µM) in assay [4]; 1.56 µg/mL (≈ 0.896 µM) in assay [5]; 0.78 µg/mL (≈ 0.448 µM) in assay [6]. In addition, the MIC in assay [7] was found to be 1.56 µg/mL (≈ 0.896 µM); in assay [8], 0.78 µg/mL (≈ 0.448 µM).
Take `CCCCCCCCCC(=O)N[C@@H](Cc1c[nH]c2ccccc12)C(=O)N[C@H](CC(N)=O)C(=O)N[C@@H](CCO)C(=O)N[C@@H]1C(=O)NCC(=O)N[C@@H](CCCNCc2ccc(C(=O)N3CCN(c4ccc(F)cc4)CC3)cc2)C(=O)N[C@@H](CC(=O)O)C(=O)N[C@H](C)C(=O)N[C@@H](CC(=O)O)C(=O)NCC(=O)N[C@H](CO)C(=O)N[C@@H]([C@H](C)CC(=O)O)C(=O)N[C@@H](CC(=O)c2ccccc2N)C(=O)O[C@@H]1C`: the MIC in assay [1] came out at 6.25 µg/mL (≈ 3.28 µM); in assay [2], 6.25 µg/mL (≈ 3.28 µM); in assay [3], 3.13 µg/mL (≈ 1.64 µM); in assay [4], 6.25 µg/mL (≈ 3.28 µM); in assay [5] it was 0.78 µg/mL (≈ 0.41 µM); in assay [6], 0.78 µg/mL (≈ 0.41 µM). The MIC stood at 1.56 µg/mL (≈ 0.82 µM) in assay [7] and 0.78 µg/mL (≈ 0.41 µM) in assay [8].
